Values of other authors in patent US9089636B2, “Methods and devices for delivering GLP-1 and uses thereof” (VALERITAS, INC., priority 2004, dated 2015).
Read-outs that look alike come from different tables or passages of the source. No end group written: not given here.

Tests used:
[1] = tested on: Multiple islet cell lines
human islets = settings: 5 days
Zucker diabetic rats = settings: 2 day infusion
[2] = tested on: BHK fibroblasts expressing a transfected GLP-1 receptor
[3] = tested on: cultured fetal rat hippocampal neurons; settings: for extent of glutamate-induced cell death: short term cultures
fetal pig islet clusters = settings: 75-90 day gestational age
lean mice = settings: subcutaneous, 2 days
young and old rats = settings: infusion for 5 days
neonatal GK rat = settings: 5 days
rats [4] = settings: ICV
rats [5] = settings: for blood pressure and heart rate: centrally and peripherally administered
rats [6] = settings: for effect on GLP-1-induced fecal output: rat, in vivo
human subjects [7] = settings: physiologically relevant concentrations
[8] = tested on: subjects with type 2 diabetes; settings: following a liquid test meal
[9] = tested on: human subjects with LV dysfunction and acute MI
salt-sensitive rats = settings: 14 day treatment, high salt diet
human volunteers = settings: 60 minute infusion, 30 pmol/kg/h
cultured myotubes = settings: 0.1-1 pM
cloned GLP-1 receptor = cloned GLP-1 receptor (Homo sapiens, UniProt P43220)
Chain of cloned GLP-1 receptor (P43220 24-463): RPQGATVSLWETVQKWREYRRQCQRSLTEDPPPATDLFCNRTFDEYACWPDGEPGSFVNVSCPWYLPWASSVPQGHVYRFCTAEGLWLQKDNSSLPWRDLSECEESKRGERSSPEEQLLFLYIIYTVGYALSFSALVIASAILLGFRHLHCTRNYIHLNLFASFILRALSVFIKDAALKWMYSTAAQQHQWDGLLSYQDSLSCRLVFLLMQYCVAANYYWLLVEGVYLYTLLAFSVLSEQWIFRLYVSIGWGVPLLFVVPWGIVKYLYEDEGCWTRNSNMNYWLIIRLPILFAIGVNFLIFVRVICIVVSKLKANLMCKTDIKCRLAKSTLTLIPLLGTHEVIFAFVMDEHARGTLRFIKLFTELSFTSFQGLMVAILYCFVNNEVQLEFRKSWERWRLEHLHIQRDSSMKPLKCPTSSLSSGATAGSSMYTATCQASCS

human subjects [10] = settings: infusion
db/db mice [11] = settings: daily for 14 days
purified rat b cells = settings: combination of cytotoxic cytokines
[12] = tested on: human islet-like cell clusters; settings: 4 days in vitro
rat pancreatectomy model = settings: in vivo
db/db mice [13] = tested on: db/db mice
blood brain barrier = settings: CD1 mice
CNS = settings: in vivo
[14] = tested on: rat PC12 pheochromocytoma cell line
hippocampal neurons = settings: systemic administration
[15] = biological target: dipeptidylaminopeptidase IV (DPP-IV) (Homo sapiens, UniProt P27487)
Chain of dipeptidylaminopeptidase IV (DPP-IV) (P27487 whole entry, species assumed): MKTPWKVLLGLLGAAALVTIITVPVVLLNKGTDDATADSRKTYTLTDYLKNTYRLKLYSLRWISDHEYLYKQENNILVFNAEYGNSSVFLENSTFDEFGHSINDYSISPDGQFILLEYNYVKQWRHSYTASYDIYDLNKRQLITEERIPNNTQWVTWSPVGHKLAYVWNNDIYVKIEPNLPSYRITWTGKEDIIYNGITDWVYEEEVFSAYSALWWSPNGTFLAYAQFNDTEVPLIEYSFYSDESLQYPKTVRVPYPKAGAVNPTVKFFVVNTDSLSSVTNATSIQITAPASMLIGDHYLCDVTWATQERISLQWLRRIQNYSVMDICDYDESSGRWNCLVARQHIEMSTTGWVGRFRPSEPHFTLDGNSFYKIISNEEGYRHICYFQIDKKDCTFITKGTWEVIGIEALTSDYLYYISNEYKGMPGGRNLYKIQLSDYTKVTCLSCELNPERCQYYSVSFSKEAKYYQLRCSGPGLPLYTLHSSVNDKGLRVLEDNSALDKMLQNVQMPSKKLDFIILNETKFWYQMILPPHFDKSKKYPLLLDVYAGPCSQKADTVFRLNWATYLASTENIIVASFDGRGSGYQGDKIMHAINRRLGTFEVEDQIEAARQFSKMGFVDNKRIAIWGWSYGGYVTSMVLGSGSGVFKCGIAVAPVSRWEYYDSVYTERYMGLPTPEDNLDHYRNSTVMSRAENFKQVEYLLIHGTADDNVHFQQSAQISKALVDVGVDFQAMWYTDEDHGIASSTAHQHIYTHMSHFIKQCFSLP

[16] = in vivo
[17] = after 72-hour infusion at 1.5 pmol/kg per minute
[18] = after reperfusion, before GLP-1 infusion

In the case of Glucagon-like peptide-1 [GLP-1], the cephalic-induced antral motility (pigs) is given as “strongly inhibited”, the “Gene or Protein activated by GLP-1” value (INS-1 cells; Akt and IRS proteins) is given as “Akt and IRS proteins” and the “Gene or Protein activated by GLP-1” value (INS-1 cells; Calcineurin and NFAT) is given as “Calcineurin and NFAT”. For the same compound, the “Gene or Protein activated by GLP-1” value (INS-1 cells; Glucokinase) was “Glucokinase”, the “Gene or Protein activated by GLP-1” value (INS-1 cells; Immediate early genes) was “Immediate early genes” and the “Gene or Protein activated by GLP-1” value (INS-1 cells; Kir 6.2 RNA) was “Kir 6.2 RNA”. The “Gene or Protein activated by GLP-1” value (RIN1046-38 cells; GLUT-1 RNA) was “GLUT-1 RNA”, the “Gene or Protein activated by GLP-1” value (RIN1046-38 cells; Hexokinase I RNA) was “Hexokinase I RNA” and the “Gene or Protein activated by GLP-1” value (RIN1046-38 cells; SNAP-25 phosphorylation) was “SNAP-25 phosphorylation”. The “Gene or Protein activated by GLP-1” value (Multiple cell models) was “Insulin RNA”, the “Gene or Protein activated by GLP-1” value [1] was “Pdx-1 RNA and protein” and the cell death (human islets) was “decreased”. The glucose-stimulated insulin secretion (human islets) was “improved”, the “islet size and β cell mass” value (Zucker diabetic rats) was “increased” and the “percentage of apoptotic β cells” value (Zucker diabetic rats) was “significantly reduced”. For the same compound, the cell survival [2] was “increased”, the “extent of hydrogen peroxide-induced apoptosis” value (Min6 mouse islet cells; in vitro) was “reduced” and the “protection against glutamate-induced apoptosis” value [3] was “completely protect”. The “extent of glutamate-induced cell death” value [3] was “significantly reduced”, the calpain activity (calpain) was “decreased” and the “differentiation to an endocrine phenotype” value (AR42J cell line) was “promotes”. For the same compound, the glucose-dependent insulin secretion (fetal pig islet clusters) was “promoted”, the “insulin expression in subsets of cells” value (human NIP cells) was “induced” and the islet labeling index (lean mice) was “increased”. For the same compound, the β cell mass (young and old rats) was “increased”, the “pancreatic insulin content and total beta-cell mass” value (neonatal GK rat) was “enhanced” and the food intake (rats [4]) was “dose-dependently inhibits”. The “blood pressure and heart rate” value (rats [5]) was “dose-dependently increased”, the fecal output (rats [6]; ICV) was “increase” and the “peak plasma level of GLP-1” value (continuous 5 day subcutaneous infusion) was 88.7 pM. For the same compound, the “peak plasma level of GLP-1” value (subcutaneous injection 30 minutes before meals) was 269.4 pM, the “pentagastrin-stimulated gastric acid secretion” value (human subjects [7]) was “inhibited” and the gastric emptying [8] was “inhibits”. For the same compound, the LVEF [9, 17] was 39+2%, the “global wall motion score indexes” value [9, 17] was 1.63 ± 0.09 and the “regional wall motion score indexes” value [9, 17] was 2.02 ± 0.11. The LVEF [9, 18] was 29+2%, the “global wall motion score indexes” value [9, 18] was 1.94 ± 0.11 and the “regional wall motion score indexes” value [9, 18] was 2.53 ± 0.08. For the same compound, the “plasma glucose and free fatty acids” value ([9]; human, in vivo) was “significant decrease”, the contraction amplitude (rat cardiac myocytes) was “decrease” and the “intracellular cAMP” value (rat cardiac myocytes) was “increased”. The development of hypertension (salt-sensitive rats) was “reduced”, the “Rd (glucose disposal)” value (human volunteers) was “no significant change” and the “decrease in Ra (endogenous glucose production)” value (human volunteers) was 17%. The plasma glucose (human volunteers) was “decreased”, the glycogen synthesis (muscle strips) was “stimulated” and the “glucose incorporation into glycogen” value (cultured myotubes) was “stimulated”.

In the case of “GLP-1 (9-36)amide (EGTFTSDVSSYLEGQAAKEFIAWLVKGR-NH2; UniProt P01275 100-127, looked up, fragment) [GLP-1 (9-36) amide, truncated fragment, primary metabolite of GLP-1 produced by DPP-IV]”, the “effect on the action of GLP-1 7-36 amide” value (cloned GLP-1 receptor) is listed as “antagonized”.

In the case of `CNC1(C)C2CCC(C2)C1(C)C` (centres unmarked) [mecamylamine], the “effect on the GLP-1-dependent increase in heart rate” value (rats [5]; normal rats) is listed as “blocked” and the “effect on the stimulatory effect of GLP-1 on blood pressure” value (rats [5]; normal rats) is listed as “prevented”.

In the case of exendin (9-39), the food intake (rats [4]) is listed as “increased”, the “effect on GLP-1-induced fecal output” value (rats [6]) is listed as “blocked” and the “effect on the insulinotropic and glucagonostatic effects of exogenous GLP-1” value (human subjects [10]) is listed as “blocked”.

In the case of `Nc1ncnc2c1ncn2[C@@H]1O[C@@H]2COP(O)(=S)O[C@H]2[C@H]1O` (some centres unmarked) [Rp-cAMP, reference compound], the “effect on the anti-apoptotic effects of GLP-1” value (Min6 mouse islet cells) is listed as “partially blocked”.

In the case of exendin-4, the “numbers of Tunel+ apoptotic β cells” value (db/db mice [11]) is listed as “reduced”, the “progression to more frank diabetes” value (db/db mice [11]) is listed as “prevented” and the β cell mass (db/db mice [11]) is listed as “increased”. For the same compound, the “β cell apoptosis induced by streptozotocin (STZ)” value (mice) was “reduced”, the “extent of apoptotic cell death” value (purified rat b cells) was “directly reduced” and the cell survival [2] was “increased”. For the same compound, the “protection against glutamate-induced apoptosis” value [3] was “completely protect”, the “extent of glutamate-induced cell death” value [3] was “significantly reduced” and the “differentiation to an endocrine phenotype” value (AR42J cell line) was “promotes”. For the same compound, the “number of cells exhibiting immunopositivity for insulin or glucagon” value (Capan-1) was “significant increase”, the “insulin expression in subsets of cells” value (human NIP cells) was “induced” and the Pdx-1 expression [12] was “enhance”. The insulin expression [12] was “not”, the “glucose intolerance following partial pancreatectomy” value (rat pancreatectomy model) was “attenuates” and the “islet neogenesis and β cell proliferation” value (rat pancreatectomy model) was “increases”. For the same compound, the β cell proliferation (db/db mice [13]) was “increased”, the β cell proliferation (ob/ob mice) was “not” and the “pancreatic insulin content and total beta-cell mass” value (neonatal GK rat) was “enhanced”. For the same compound, the “crossing of the blood brain barrier” value (blood brain barrier) was “readily crosses” and the “blood pressure and heart rate” value (rats [5]) was “dose-dependently increased”.

For astressin, the “effect on GLP-1-induced fecal output” value (rats [6]) is listed as “blocked”.

For “[Ser8]GLP-1 (HSEGTFTSDVSSYLEGQAAKEFIAWLVKGRG; also: radiolabel, position not given here; UniProt P01275 98-128, looked up, variant A8S)”, the “uptake into the CNS” value (CNS) is listed as “not saturable”.

For `O=S(=O)(NCCNC/C=C/c1ccc(Br)cc1)c1cccc2cnccc12` [H-89], the “effect on the differentiation actions of GLP-1” value [14] is given as “only modest effects”.

In the case of `COc1cccc(-c2cc(=O)c3ccccc3o2)c1N` [PD98059], the “effect on the differentiation actions of GLP-1” value [14] is given as “abrogated”.

For `CN1[C@@H]2CC[C@H]1C[C@@H](OC(=O)C(CO)c1ccccc1)C2` (some centres unmarked) [atropine], the “effect on the stimulatory effect of GLP-1 on blood pressure” value (rats [5]; normal rats) is given as “prevented”.

For [Ser(2)]exendin(1-9), the “kainate-induced apoptosis of hippocampal neurons” value (hippocampal neurons) is given as “prevents”.

In the case of Val8-GLP-1(7-37)OH, the DPP-IV degradation [15] is listed as “resistant” and the optimum plasma levels [16] is listed as 30-200 picomoles/liter.
